Here are results for one compound from patent US20070049515A1, “Therapeutic agent for diabetes containing insulin resistance improving agent” (SANKYO COMPANY, LIMITED, priority 2005, published 2007).

Assay type in all cases: in vivo, rat
Data set [1] concerns Zucker diabetic fatty rats. Put plainly: Administration of the effective and low doses of compound A in combination (Example 1(a)): blood glucose level, red blood cell count, heart weight. The following applies: for red blood cell count: FIG. 2; for heart weight: FIG. 3; for blood glucose level (mean) after the decrease to the low dose: oral once a day, from the 14th day on. An excerpt: Zucker diabetic fatty rats (9-week-old, from Charles River Laboratories Japan, Inc.) were used in the experiment. The rats were divided into 4 groups of 5 individuals each so that body weight, blood glucose level, and red blood cell count may each be uniform among the groups, and each of these groups served as a low-dose treatment group (Ia), a low-dose treatment group (Ib), a continuous treatment group, or a control group. Food (FR2, from Funabashi Nojo) and water were given ad libitum during the testing period. A 0.5% carboxymethyl cellulose (CMC) solution only was administered to the control group, and a CMC suspension of compound A was orally administered to all of the other groups, once a day in doses described below. For the low-dose treatment group (Ia), it was administered at 3 mg/kg for 2 weeks and then at a decreased dose of 0.03 mg/kg for a further 3 weeks. For the low-dose treatment group (Ib), it was administered at 3 mg/kg for 2 weeks and then at a decreased dose of 0.3 mg/kg for a further 3 weeks. For the continuous treatment group, 3 mg/kg was administered for 5 weeks. Blood was collected every 7 days from the start of administration using a capillary tube treated with heparin and EDTA, and blood glucose level and blood cell parameters were determined using an autoanalyzer (blood glucose level: Glucoroder GX-T from A&T Corporation), blood cell parameters: KX-21N from Sysmex Corporation).

The test system of data set [2] is Zucker diabetic fatty rats. Put plainly: Cycle of one week full coverage followed by four weeks of reduced dosage (Example 1(b)). The following applies: one week full coverage (3 mg/kg) followed by four weeks of reduced dosage (0.3 mg/kg).
Data set [3] has as its system Zucker diabetic fatty rats. In words: Intermittent administration of compound A (Example 2): blood glucose level, red blood cell count, heart weight. The following applies: for blood glucose level: FIG. 4; for red blood cell count: FIG. 5; for heart weight: FIG. 6. An excerpt: Zucker diabetic fatty rats (9-week-old, from Charles River Laboratories Japan, Inc.) were used in the experiment. The rats were divided into 3 groups so that body weight, blood glucose level, and red blood cell count may each be uniform among the groups, and each of these groups served as a control group, an intermittent treatment group, or a continuous treatment group (n=4 to 5). Food (FR2, from Funabashi Nojo) and water were given ad libitum during the testing period. A 0.5% carboxymethyl cellulose (CMC) solution only was administered to the control group, and a CMC suspension of compound A was forcibly orally administered to the intermittent treatment group and continuous treatment group according to the regimen described below. For the intermittent treatment group, compound A was repeatedly given in a dose of 1 mg/kg once a day for one week before decreasing the administration thereof to twice a week to administer it for a further two weeks (dosing days: days 0 to 7, 10, 14, and 17). In this respect, the CMC solution was given on the days when compound A was not administered. For the continuous treatment group, 1 mg/kg was repeatedly administered once a day for three weeks. Blood was collected at days 0, 2, 5, 7, 9, 12, 14, 16, 19, and 21 when the start date of dosing was shown as day 0, using a capillary tube treated with heparin, and blood glucose level and blood cell parameters were determined using an autoanalyzer (blood glucose level: Glucoroder GX-T from A&T Corporation, blood cell parameters: KX-21N from Sysmex Corporation)

Where [4] appears, read: continuous treatment group: 3 mg/kg orally once a day for 5 weeks.
[5] abbreviates: low-dose treatment group (Ia): 3 mg/kg for 2 weeks, then 0.03 mg/kg for 3 weeks.
Where [6] appears, read: low-dose treatment group (Ib): 3 mg/kg for 2 weeks, then 0.3 mg/kg for 3 weeks.
The mark [7] stands for this setting: continuous treatment group: 1 mg/kg orally once a day for three weeks.
Where [8] appears, read: intermittent treatment group: 1 mg/kg once a day for one week, then twice a week for two weeks.

On to `COc1ccc2nc(COc3ccc(CC4SC(=O)NC4=O)cc3)n(C)c2c1.Cl` (stereo not shown) [compound A, 5-[4-(6-methoxy-1-methyl-1H-benzimidazol-2-ylmethoxy)benzyl]thiazolidin-2,4-dione hydrochloride], for which the blood glucose level entry in data set [1] (continuous treatment group: 3 mg/kg orally once a day for 5 weeks, FIG. 1) is given as “lowered to a normal value”; in data set [3] (setting [7]) it was “lowered to a normal range”; in data set [3] (setting [8]), “nearly the same level as that in the continuous treatment group”. Besides, the “red blood cell count” value was “hemodilution (a decrease in red blood count)” in data set [1] (setting [4]); “recovered nearly to control level” in data set [1] (setting [5]); “rapidly recovered in dose-dependent manner” in data set [1] (setting [6]); “hemodilution (a decrease in red blood cell count)” in data set [3] (setting [7]); “an increase in red blood cell count” in data set [3] (setting [8]). Also, the heart weight result in data set [1] (setting [4]) was “marked increase in heart weight”; in data set [1] (setting [5]), “clearly decreased values compared to that in the continuous treatment group”; in data set [1] (setting [6]) it was “clearly decreased values compared to that in the continuous treatment group”; in data set [3] (setting [7]), “marked increase in heart weight”; in data set [3] (setting [8]) it was “decreased in value compared to that in the continuous treatment group”. For the same compound, the “blood glucose level (mean) after the decrease to the low dose” value in data set [1] (low-dose treatment group (Ia): 3 mg/kg for 2 weeks, then 0.03 mg/kg for 3 weeks, FIG. 1) is given as no more than 300 mg/dL; in data set [1] (low-dose treatment group (Ib): 3 mg/kg for 2 weeks, then 0.3 mg/kg for 3 weeks, FIG. 1) it was no more than 300 mg/dL. Moreover, in data set [2], the “results (blood glucose level, red blood cell count, heart weight) compared with Example 1(a)” value was “Almost the same results to those described above”.
